Like-named read-outs stand apart in the source and are kept apart here.
What was measured:
Assay type in all cases: in vivo
[1] = test system: Aedes aegypti; test: whole plant or invertebrate; conditions: for mortality in comparison with untreated controls: 800 ppm, larvae, 2 days; for mortality at 800 ppm: Aedes aegypti, 48 h, read-out: mortality in comparison with untreated controls
Procedure, shortened: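 Freshly hatched larvae (5-15 per well) were held in tap water, and compounds formulated in 25% DMSO/water were sprayed onto diet at several concentrations in duplicate. Larval mortality was scored visually after 2 days at 28±1 °C, 80±5% RH.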

[2] = test system: Dichromothrips corbetti; test: Action on Orchid Thrips (Dichromothrips corbetti); conditions: for mortality at 300 ppm: Dichromothrips corbetti, read-out: mortality in comparison with untreated controls
Description: Example B2: Action on Orchid Thrips (Dichromothrips corbetti)
Dichromothrips corbetti adults used for bioassay were obtained from a colony maintained continuously under laboratory conditions. For testing purposes, the test compound is diluted in a 1:1 mixture of acetone: water (vol: vol), plus Kinetic® HV at a rate of 0.01% v/v.
Thrips potency of each compound was evaluated by using a floral-immersion technique. All petals of individual, intact orchid flowers were dipped into treatment solution and allowed to dryin Petri dishes. Treated petals were placed into individual re-sealable plastic along with about 20 adult thrips. All test arenas were held under continuous light and a temperature of about 28 °C for duration of the assay. After 3 days, the numbers of live thrips were counted on each petal. The percent mortality was recorded 72 hours after treatment.

[3] = test system: Anthonomus grandis; test: Action on Boll Weevil (Anthonomus grandis); conditions: for mortality at 800 ppm: Anthonomus grandis, 120 h, read-out: mortality in comparison with untreated controls
Procedure, shortened: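 Compounds in 75:25 water:DMSO sprayed at several concentrations onto insect diet in microtiter wells holding 5-10 eggs, two replicates. Plates kept 5 days at about 25±1 °C and 75±5% RH; egg and larval mortality scored visually.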

[4] = test system: Heliothis virescens; test: Action on Tobacco Budworm (Heliothis virescens); conditions: for mortality at 800 ppm: Heliothis virescens, 120 h, read-out: mortality in comparison with untreated controls
Procedure, shortened: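 Compounds in 25% DMSO/75% water were sprayed at several concentrations onto insect diet in microtiter wells holding 15-25 eggs, two replications. After 5 days at about 28±1 °C and 80±5% RH, egg and larval mortality was scored visually.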

[5] = test system: Plutella xylostella; test: Action on Diamond Back Moth (Plutella xylostella), cabbage leaf dip, 3rd instar larvae; conditions: for mortality at 300 ppm: read-out: mortality in comparison with untreated controls
Procedure, shortened: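 Cabbage leaves dipped in compound solution (1:1 water:acetone, 0.01% v/v surfactant), air-dried, then infested with ten 3rd-instar larvae in petri dishes on moist filter paper. Mortality scored at 72 h after treatment; feeding damage rated on a 0–100% scale.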

[6] = test system: Spodoptera eridania; test: Action on Southern Armyworm (Spodoptera eridania), 2nd Instar Larvae; conditions: for mortality at 300 ppm: read-out: mortality in comparison with untreated controls
Procedure, shortened: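 Compounds in 50% acetone/water with 0.01% nonionic surfactant sprayed electrostatically onto Lima bean plants at 1st true leaf stage. After drying, 10–11 2nd-instar larvae bagged with each pot, kept about 25 °C, 20–40% RH. Mortality and reduced feeding scored at 4 days vs untreated plants.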

[7] = test system: Plutella xylostella; test: Action on Diamond Back Moth (Plutella xylostella), microtiter plates, insect diet, eggs; conditions: 800 ppm; egg and larval mortality; 5 days
Description: Example B8: Action on Diamond Back Moth (Plutella xylostella)
For evaluating control of diamond back moth (Plutella xylostella) the test unit consisted of 96-well-microtiter plates containing an insect diet and 15-25 P. xylostella eggs. The compounds or mixtures were formulated using a solution containing 75% water and 25% DMSO. Different concentrations of formulated compounds or mixtures were sprayed onto the insect diet at 5 μl, using a custom-built micro atomizer, at two replications. For experimental mixtures in these tests identical volumes of both mixing partners at the desired concentrations respectively, were mixed together. After application, microtiter plates were incubated at 28±1 °C, 80±5% RH for 5 days. Egg and larval mortality was then visually assessed.

[8] = 300 ppm, adults, 72 hours after treatment
[9] = 800 ppm, egg and larval mortality, 5 days
[10] = 300 ppm, 3rd instar larvae, 72 hours after treatment
[11] = 300 ppm, 2nd instar larvae, 4 days after treatment

Row | SMILES | mortality in comparison with untreated controls [1] | mortality in comparison with untreated controls [2, 8] | mortality in comparison with untreated controls [3, 9] | mortality in comparison with untreated controls [4, 9] | mortality in comparison with untreated controls [5, 10] | mortality in comparison with untreated controls [6, 11] | mortality in comparison with untreated controls [7] | also measured
1 | Cc1nn(-c2ccc(NC(=O)N=C3SCC(=O)N3c3cc(C#N)ccc3C(C)C)cc2)cc1NC(=O)c1ccc(OC(F)(F)F)cc1 [Example C-10] | at least 50% | at least 75% | at least 75% | at least 75% | at least 75% | at least 75% |  | 
2 | Cc1ccc(C(C)C)c(N2C(=O)CS/C2=N\C(=O)Nc2ccc(-n3cc(NC(=O)c4ccc(F)c(F)c4)c(C)n3)cc2)c1 [Example C-25] | at least 50% | at least 75% | at least 75% | at least 75% | at least 75% | at least 75% |  | 
3 | Cc1ccc(C(C)C)c(N2C(=O)CSC2=NC(=O)Nc2ccc(-n3nc(C)c(NC(=O)c4ccc(Cl)c(C#N)c4)c3C)cc2)c1 [Example C-118] |  |  | at least 75% |  | at least 75% |  | at least 75% | 
4 | Cc1ccc(C(C)C)c(N2C(=O)CS/C2=N\C(=O)Nc2ccc(-n3nc(C)c(NC(=O)c4ccc(OC(F)(F)F)cc4)c3C)cc2OC(F)F)c1 [Example C-20] | at least 50% | at least 75% | at least 75% | at least 75% | at least 75% | at least 75% |  | 
5 | Cc1ccc(C(C)C)c(N2C(=O)CS/C2=N\C(=O)Nc2ccc(-n3nc(C)c(N(C)C(=O)c4ccc(OC(F)(F)F)cc4)c3Cl)cc2)c1 [Example C-3, N-[5-chloro-1-[4-[[(Z)-[3-(2-isopropyl-5-methyl-phenyl)-4-oxo-thiazolidin-2-ylidene]carbamoyl]amino]phenyl]-3-methyl-pyrazol-4-yl]-N-methyl-4-(trifluoromethoxy)benzamide] |  |  |  |  |  |  |  | mortality at 800 ppm [1]: ≥ 50%; mortality at 300 ppm ([2]; 72 h): ≥ 75%; mortality at 800 ppm [3]: ≥ 75%; mortality at 800 ppm [4]: ≥ 75%; mortality at 300 ppm ([5]; Plutella xylostella, foliar, 72 h): ≥ 75%; mortality at 300 ppm ([6]; Spodoptera eridania, 96 h): ≥ 75%
6 | Cc1ccc(C(C)C)c(N2C(=O)CS/C2=N\C(=O)Nc2ccc(-n3cc(N(C)C(=O)c4ccc(OC(F)(F)F)cc4)c(C)n3)cc2)c1 [Example C-2, N-[1-[4-[[(Z)-[3-(2-isopropyl-5-methyl-phenyl)-4-oxo-thiazolidin-2-ylidene]carbamoyl]amino]phenyl]-3-methyl-pyrazol-4-yl]-N-methyl-4-(trifluoromethoxy)benzamide] |  |  |  |  |  |  |  | mortality at 800 ppm [1]: ≥ 50%; mortality at 300 ppm [2, 8]: ≥ 75%; mortality at 800 ppm [3, 9]: ≥ 75%; mortality at 800 ppm [4, 9]: ≥ 75%; mortality at 10 ppm ([5]; Plutella xylostella, foliar, 72 h, Table R-1 comparative data, dose 10 ppm, test species PLUTMA, procedure analogous to B6): 100%; mortality at 300 ppm ([5]; Plutella xylostella, foliar, 300 ppm, 3rd instar larvae, 72 hours after treatment): ≥ 75%; mortality at 300 ppm ([6]; Spodoptera eridania, 96 h, 300 ppm, 2nd instar larvae, 4 days after treatment): ≥ 75%; mortality at 10 ppm ([6]; Spodoptera eridania, 96 h, Table R-1 comparative data, dose 10 ppm, test species PRODER, procedure analogous to B7): 82.5%
7 | Cc1ccc(C(C)C)c(N2C(=O)CS/C2=N\C(=O)Nc2ccc(-n3nc(C)c(NC(=O)c4ccc(OC(F)(F)F)cc4)c3C)cc2C)c1 [Example C-18] | at least 50% | at least 75% | at least 75% | at least 75% | at least 75% | at least 75% |  | 
8 | COc1ccc(C(C)C)c(N2C(=O)CSC2=NC(=O)Nc2ccc(-n3nc(C)c(NC(=O)c4ccc(OC(F)(F)F)cc4)c3C)cc2Cl)c1 [Example C-44] | at least 50% | at least 75% | at least 75% | at least 75% | at least 75% |  |  | 
9 | Cc1ccc(C(C)C)c(N2C(=O)CSC2=NC(=O)Nc2ccc(-n3cc(NC(=O)c4ccc([N+](=O)[O-])cc4)c(C)n3)cc2)c1 [Example C-54] | at least 50% |  | at least 75% | at least 75% |  | at least 75% | at least 75% | 
10 | CCN(C(=O)c1ccc(Cl)c(Cl)c1)c1c(C)nn(-c2ccc(NC(=O)/N=C3\SCC(=O)N3c3cc(C)ccc3C(C)C)c(Cl)c2)c1C [Example C-103] | at least 50% |  | at least 75% | at least 75% |  | at least 75% | at least 75% | 
11 | Cc1ccc(C(C)C)c(N2C(=O)CSC2=NC(=O)Nc2ccc(-n3nc(C)c(NC(=O)c4ccc(F)c(F)c4)c3C)cc2)c1 [Example C-114] | at least 50% |  | at least 75% | at least 75% |  | at least 75% | at least 75% | 
12 | Cc1ccc(C(C)C)c(N2CCSC2=NC(=O)Nc2ccc(-n3nc(C)c(NC(=O)c4ccc(OC(F)(F)F)cc4)c3C)cc2Cl)c1 [Example C-128] | at least 50% |  | at least 75% | at least 75% |  | at least 75% | at least 75% | 
13 | Cc1ccc(C(C)C)c(N2C(=O)CS/C2=N\C(=O)Nc2ccc(-n3nc(C)c(NC(=O)c4ccc(OC(F)(F)F)cc4)c3C)nc2)c1 [Example C-22] |  | at least 75% |  |  | at least 75% | at least 75% |  | 
